# Oligonucleotides are written 5' to 3', each unit as a sugar letter and its base; * is a phosphorothioate linkage, no mark a phosphodiester; rarer units and linkages stand in square brackets, end groups in braces. Plain capitals give the bases only. e = 2'-O-(2-methoxyethyl) (MOE); [5mC] = 5-methylcytosine
# Test system: IKBKAP pre-mRNA (mt19-21 minigene)
# Test: Exon 20 inclusion in HEK-293 cells harboring the mt19-21 IKBKAP minigene (RT-PCR)
# Type: cell-based, human
# Conditions: Table 2 (microwalk experiment); HEK-293 with mt19-21 minigene, 0.007 nmol oligonucleotide by electroporation, RT-PCR two days later
# How it was run: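 HEK-293 cells carrying the mt19-21 IKBKAP minigene were electroporated with 0.007 nmol uniform 2′-MOE phosphate-backbone antisense oligonucleotide (15- or 20-mers, 5-methylcytosines). After two days, RT-PCR with α^32P-dCTP-labeled amplicons, native PAGE and phosphorimaging gave exon 20 inclusion, normalized for G+C content.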
substance,measurement,value
"ISIS 421992: uniform 2′-MOE 20-mer, phosphate backbone; GTCGCAAACAGTACAATGGC, SEQ ID NO 61, intron 20 (eGeTe[5mC]eGe[5mC]eAeAeAe[5mC]eAeGeTeAe[5mC]eAeAeTeGeGe[5mC])",% inclusion (exon 20),96%

# Source: patent US11066668B2, “Compositions and methods for modulation of IKBKAP splicing” (Ionis Pharmaceuticals, Inc., priority 2012, dated 2021)
